Like-named read-outs stand apart in the source and are kept apart here.
Experiments:
Type in all cases: cell-based, human
[1] = tested on: DU145 cells; assay: MTS viability assay, DU145 prostate cancer cells
Method: (§1) FIG. 2D. Effects of compounds 1-11 on the viability of DU145 cells. DU145 cells were cultured in DMEM medium supplemented with 10% FBS. Equal numbers were dispersed into 96-well plates. After 24 h, the cells were incubated with compounds 1-11 (0-30 μM) for 48 h. At the end of the incubation, MTS reagent (20% vol/vol) was added and the plates were incubated for 1-4 h. The OD490 was read with a plate reader. Wells with media but no cells were treated in similar fashion and the values utilized as blank. The results represent the mean±standard deviation of 6 independent determinations.
as §1, with “2H. Effect” for “2D. Effects”, “1, 69-72” for “1-11”, “1, 69-72” for “1-11 (0-30 μM)”
(§2) The cell lines were cultured from frozen stocks originally obtained from ATCC. MDA-MB-231, JIMT-1, DU145, U81, U251 cells were grown in DMEM medium. BT474, A2780s, A2780cp cells were grown in DMEM/F12 medium supplemented with 10% FBS. MiaPaCa2 was cultured in DMEM supplemented with 10% FBS and 2.5% horse serum. PC3 cells were cultured in F12K medium supplemented with 10% FBS. All the media were supplemented with penicillin/streptomycin.
(§3) The effects of the GAELs on the viability of the various epithelial cancer cell lines was determined as previously described. Briefly, equal numbers of the cells were dispersed into 96-well plates. After 24 h, the cells were incubated with the compounds (0-30 μM) for 48 h. At the end of the incubation, MTS reagent (20% vol/vol) was added and the plates were incubated for 1-4 h. The OD490 was read with a plate reader. Wells with media but no cells were treated in similar fashion and the values utilized as blank. The results represent the mean±standard deviation of 6 independent determinations.

[2] = tested on: MiaPaCa2 cells; assay: MTS viability assay, MiaPaCa2 pancreas cancer cells
Method: as §1, with “2F.” for “2D.”, “MiaPaCa2” for “DU145”, “FBS and 2.5% horse serum.” for “FBS.”
as §1, with “2I.” for “2D.”, “1, 69-72” for “1-11”, “MiaPaCa2” for “DU145”, “FBS and 2.5% horse serum.” for “FBS.”, “1, 69-72” for “1-11 (0-30 μM)”
as §2, §3

[3] = tested on: PC3 cells; assay: MTS viability assay, PC3 prostate cancer cells; settings: 48 h, MTS
Method: as §1, with “2E.” for “2D.”, “PC3” for “DU145”, “F12K” for “DMEM”
as §2, §3

[4] = tested on: MDA-MB-231 cells; assay: MTS viability assay, MDA-MB-231 breast cancer cells
Method: as §1, with “FIG. 2A.” for “FIG. 2D.”, “of MDA-MB231” for “of DU145”, “cells. MDA-MB-231” for “cells. DU145”
as §1, with “2K.” for “2D.”, “1, 69-72” for “1-11”, “MDA-MB-231” for “DU145”, “1, 69-72” for “1-11 (0-30 μM)”
as §2, §3

[5] = tested on: JIMT-1 cells; assay: MTS viability assay, JIMT-1 breast cancer cells
Method: as §1, with “2B.” for “2D.”, “JIMT-1” for “DU145”
as §1, with “2J.” for “2D.”, “1, 69-72” for “1-11”, “JIMT-1” for “DU145”, “1, 69-72” for “1-11 (0-30 μM)”
as §2, §3

[6] = tested on: BT-474 cells; assay: MTS viability assay, BT-474 breast cancer cells; settings: 48 h, MTS
Method: as §1, with “2C.” for “2D.”, “BT-474” for “DU145”, “DMEM/F12” for “DMEM”
as §2, §3

[7] = Table 1A, 48 h, read-out: CC50 values DU 145
[8] = Table 1B, 48 h, read-out: CC90 values DU 145
[9] = Table 1A, 48 h, read-out: CC50 values MiaPaCa2
[10] = Table 1B, 48 h, read-out: CC90 values MiaPaCa2
[11] = Table 1A, read-out: CC50 values PC3
[12] = Table 1B, read-out: CC90 values PC3
[13] = Table 1A, 48 h, read-out: CC50 values MD 231
[14] = Table 1B, 48 h, read-out: CC90 values MD 231
[15] = Table 1A, 48 h, read-out: CC50 values JIMT1
[16] = Table 1B, 48 h, read-out: CC90 values JIMT1
[17] = Table 6, 48 h, read-out: DU145 CC50
[18] = Table 6, 48 h, read-out: DU145 CC90
[19] = Table 6, 48 h, read-out: MiaPaCa2 CC50
[20] = Table 6, 48 h, read-out: MiaPaCa2 CC90
[21] = Table 6, 48 h, read-out: MB-MDA-231 CC50
[22] = Table 6, 48 h, read-out: MB-MDA-231 CC90
[23] = Table 6, 48 h, read-out: JIMT1 CC50
[24] = Table 6, 48 h, read-out: JIMT1 CC90
[25] = Table 5, 48 h, read-out: CC50 DU-145
[26] = Table 5, 48 h, read-out: CC90 DU-145
[27] = Table 5, 48 h, read-out: CC50 Mlapaca2
[28] = Table 5, 48 h, read-out: CC90 Mlapaca2
[29] = Table 5, 48 h, read-out: CC50 MDA-MB-231
[30] = Table 5, 48 h, read-out: CC90 MDA-MB-231
[31] = Table 5, 48 h, read-out: CC50 JIMT1
[32] = Table 5, 48 h, read-out: CC90 JIMT1

CCCCCCCCCCCCCCCCOC[C@@H](CN)O[C@H]1O[C@H](CO)[C@@H](O)[C@H](O)[C@H]1N [Compound 7, 1-O-Hexadecyloxy-2R-(2′-amino-2′-deoxy-α-D-glucopyranosyl)-3-amino glycerol]
CC50 [1, 7]: 17.5 µM
CC90 [1, 8]: 25 µM
CC50 [2, 9]: 15 µM
CC90 [2, 10]: 28 µM
CC50 [3, 11]: 9.5 µM
CC90 [3, 12]: 17 µM
CC50 [4, 13]: 12 µM
CC90 [4, 14]: 17.5 µM
CC50 [5, 15]: 14 µM
CC90 [5, 16]: 19 µM
CC50 ([6]; Table 1A, read-out: CC50 values BT474): 25 µM
CC90 ([6]; Table 1B, read-out: CC90 values BT474): > 30 µM

CCCCCCCCCCCCCCCCOC[C@H](COC1O[C@H](CN)[C@@H](O)[C@H](O)[C@H]1NCCCN)OC (stereo partly shown) [Compound 76, 1-O-Hexadecyl-2-O-methyl-3-O-[2′-N-(3-aminopropyl)-2′,6′-diamino-2′,6′-dideoxy-glucopyranoside]-sn-glycerol]
CC50 [1, 17]: 18.5 µM
CC90 [1, 18]: > 20 µM
CC50 [2, 19]: 14.5 µM
CC90 [2, 20]: > 20 µM
CC50 ([3]; Table 6, read-out: PC3 CC50): 14.5 µM
CC90 ([3]; Table 6, read-out: PC3 CC90): > 20 µM
CC50 [4, 21]: 17.5 µM
CC90 [4, 22]: > 20 µM
CC50 [5, 23]: 12.5 µM
CC90 [5, 24]: 16.5 µM
CC50 ([6]; Table 6, read-out: BT474 CC50): > 20 µM
CC90 ([6]; Table 6, read-out: BT474 CC90): > 20 µM

CCCCCCCCCCCCCCCCOC[C@H](CO[C@H]1O[C@H](CN)[C@@H](O)[C@H](O)[C@H]1N1C(=O)c2ccccc2C1=O)OC [Compound 3, 1-O-Hexadecyl-2-O-methyl-3-O-(-2′-N-phthalimido-6′-amino-2′,6′-dideoxy-δ-D-glucopyranosyl)-sn-glycerol]
CC50 [1, 7]: > 30 µM
CC90 [1, 8]: > 30 µM
CC50 [2, 9]: > 30 µM
CC90 [2, 10]: > 30 µM
CC50 [3, 11]: 15 µM
CC90 [3, 12]: 30 µM
CC50 [4, 13]: 20 µM
CC90 [4, 14]: > 30 µM
CC50 [5, 15]: > 30 µM
CC90 [5, 16]: > 30 µM

CCCCCCCCCCCCCCCCOC[C@H](CO[C@@H]1O[C@@H](CN)[C@H](O)[C@@H](O)[C@@H]1N)OC [Compound 71, 1-O-Hexadecyl-2-O-methyl-3-O-(2′,6′-diamino-2′,6′-dideoxy-α-L-glucopyranosyl)-sn-glycerol]
CC50 [1, 25]: 6 µM
CC90 [1, 26]: 8 µM
CC50 [2, 27]: 6 µM
CC90 [2, 28]: 15 µM
CC50 [4, 29]: 5.5 µM
CC90 [4, 30]: 7.5 µM
CC50 [5, 31]: 4 µM
CC90 [5, 32]: 6.5 µM

CCCCCCCCCCCCCCCCOC[C@H](CO[C@@H]1O[C@@H](CN)[C@H](OCc2ccccc2)[C@@H](O)[C@@H]1N)OC [Compound 72, 1-O-Hexadecyl-2-O-methyl-3-O-(4′-benzyl-2′,6′-diamino-2′,6′-dideoxy-α-L-glucopyranosyl)-sn-glycerol]
CC50 [1, 25]: 3.6 µM
CC90 [1, 26]: 4.9 µM
CC50 [2, 27]: 4.5 µM
CC90 [2, 28]: 7 µM
CC50 [4, 29]: 4 µM
CC90 [4, 30]: 4.9 µM
CC50 [5, 31]: 2 µM
CC90 [5, 32]: 3.5 µM

CCCCCCCCCCCCCCCCOC[C@H](CO[C@H]1O[C@@H](CN)[C@H](OCc2ccccc2)[C@@H](O)[C@@H]1N)OC [Compound 70, 1-O-Hexadecyl-2-O-methyl-3-O-(4′-benzyl-2′,6′-diamino-2′,6′-dideoxy-β-L-glucopyranosyl)-sn-glycerol]
CC50 [1, 25]: 3.6 µM
CC90 [1, 26]: 4.9 µM
CC50 [2, 27]: 5 µM
CC90 [2, 28]: 7.1 µM
CC50 [4, 29]: 4 µM
CC90 [4, 30]: 4.9 µM
CC50 [5, 31]: 2 µM
CC90 [5, 32]: 3.5 µM

CCCCCCCCCCCCCCCCOC[C@H](COC1O[C@H](CNCCCN)[C@@H](O)[C@H](O)[C@H]1N)OC (stereo partly shown) [Compound 74, 1-O-Hexadecyl-2-O-methyl-3-O-[6′-N-(3-aminopropyl)-2′,6′-diamino-2′,6′-dideoxy-glucopyranoside]-sn-glycerol]
CC50 [1, 17]: 16.5 µM
CC90 [1, 18]: 20 µM
CC50 [2, 19]: 18.5 µM
CC90 [2, 20]: > 20 µM
CC50 ([3]; Table 6, read-out: PC3 CC50): 12.5 µM
CC90 ([3]; Table 6, read-out: PC3 CC90): 20 µM
CC50 [4, 21]: 13.5 µM
CC90 [4, 22]: 19.5 µM
CC50 [5, 23]: 13.5 µM
CC90 [5, 24]: 18.5 µM
CC50 ([6]; Table 6, read-out: BT474 CC50): > 20 µM
CC90 ([6]; Table 6, read-out: BT474 CC90): > 20 µM

Reference: patent publication US10806746B2, “Di- and tri-cationic glycosylated antitumor ether lipids, L-gucosylated gaels and rhamnose-linked gaels as cytotoxic agents against epithelial cancer cells and cancer stem cells” (The University of Manitoba, priority 2014, dated 2020)
